Test results from patent publication US12655106B2 (Eikonizo Therapeutics, Inc., priority 2021, dated 2026).

Legend:
Full length Human HDAC8 = target: T1, Full length Human HDAC8 (Homo sapiens, UniProt Q9BY41); experiment: Caliper endpoint assay for HDAC enzymatic activity (HDAC8); assay type: biochemical; details: in vitro enzymatic, 30 min pre-incubation, 1 μM substrate peptide
T1 construct: Full length Human HDAC8; HIS (N); host or cells: baculovirus expression system
T1 sequence (Q9BY41 1-377): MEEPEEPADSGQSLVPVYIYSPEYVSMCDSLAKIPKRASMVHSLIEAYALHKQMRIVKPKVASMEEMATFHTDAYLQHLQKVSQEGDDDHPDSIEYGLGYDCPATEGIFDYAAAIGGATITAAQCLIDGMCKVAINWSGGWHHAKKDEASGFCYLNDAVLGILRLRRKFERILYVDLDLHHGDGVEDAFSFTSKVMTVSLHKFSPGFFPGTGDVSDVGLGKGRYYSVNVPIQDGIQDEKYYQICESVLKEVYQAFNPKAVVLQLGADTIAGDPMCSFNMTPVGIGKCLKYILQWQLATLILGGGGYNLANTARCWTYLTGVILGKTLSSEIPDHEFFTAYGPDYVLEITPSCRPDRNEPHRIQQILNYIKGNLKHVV

Full length Human HDAC6 = target: T2, Full length Human HDAC6 (Homo sapiens, UniProt Q9UBN7); experiment: Caliper endpoint assay for HDAC enzymatic activity (HDAC6); assay type: biochemical; details: for IC50: in vitro enzymatic, Caliper endpoint assay, 30 min pre-incubation, 1 μM substrate peptide; for Selectivity (6 v 8): ratio of HDAC8 IC50/HDAC6 IC50
T2 construct: Full length Human HDAC6; FLAG (C); host or cells: baculovirus expression system
T2 sequence (Q9UBN7 1-1215): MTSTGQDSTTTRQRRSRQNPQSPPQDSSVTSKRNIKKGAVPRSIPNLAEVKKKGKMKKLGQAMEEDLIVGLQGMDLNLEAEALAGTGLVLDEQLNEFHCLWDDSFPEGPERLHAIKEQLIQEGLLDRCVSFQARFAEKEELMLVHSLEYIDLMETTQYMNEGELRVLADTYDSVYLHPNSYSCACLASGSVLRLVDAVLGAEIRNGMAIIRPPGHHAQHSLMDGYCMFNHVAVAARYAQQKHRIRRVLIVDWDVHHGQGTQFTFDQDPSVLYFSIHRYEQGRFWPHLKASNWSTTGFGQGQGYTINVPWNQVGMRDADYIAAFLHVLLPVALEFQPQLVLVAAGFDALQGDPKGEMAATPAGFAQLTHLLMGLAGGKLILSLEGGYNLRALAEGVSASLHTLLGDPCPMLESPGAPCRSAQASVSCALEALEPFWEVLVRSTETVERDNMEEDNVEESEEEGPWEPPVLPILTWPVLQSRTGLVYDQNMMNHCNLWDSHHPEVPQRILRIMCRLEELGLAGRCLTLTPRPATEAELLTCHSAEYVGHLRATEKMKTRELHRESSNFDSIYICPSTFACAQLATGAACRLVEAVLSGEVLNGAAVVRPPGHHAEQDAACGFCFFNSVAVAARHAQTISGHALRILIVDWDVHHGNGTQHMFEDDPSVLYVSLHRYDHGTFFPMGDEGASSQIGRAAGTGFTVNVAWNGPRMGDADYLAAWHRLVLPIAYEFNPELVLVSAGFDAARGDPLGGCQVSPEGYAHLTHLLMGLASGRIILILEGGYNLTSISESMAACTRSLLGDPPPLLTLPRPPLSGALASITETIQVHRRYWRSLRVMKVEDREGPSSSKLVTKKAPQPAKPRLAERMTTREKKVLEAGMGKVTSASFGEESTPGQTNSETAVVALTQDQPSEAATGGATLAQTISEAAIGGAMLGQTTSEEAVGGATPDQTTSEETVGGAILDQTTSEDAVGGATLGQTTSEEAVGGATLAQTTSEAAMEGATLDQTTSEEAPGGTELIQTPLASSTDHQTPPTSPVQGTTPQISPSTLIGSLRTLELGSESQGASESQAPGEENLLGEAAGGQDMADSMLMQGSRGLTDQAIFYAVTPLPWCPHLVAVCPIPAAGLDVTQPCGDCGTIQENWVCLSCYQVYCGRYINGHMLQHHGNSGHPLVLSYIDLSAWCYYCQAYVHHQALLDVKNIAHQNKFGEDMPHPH

IC50 (Full length Human HDAC8) | IC50 (Full length Human HDAC6) | Selectivity (6 v 8) (Full length Human HDAC6) | SMILES
10000 to 100000 nM | 1 to 100 nM | IV (IV: >100-1000) | CC(=O)N1CC[C@@H](N2CCc3cc(C(=O)NO)cc(F)c3C2)CC12CCC2 (single isomer, unassigned) [Compound 442]
10000 to 100000 nM | 1 to 100 nM | IV (IV: >100-1000) | O=C(NO)c1cc(F)c2c(c1)CCN([C@H]1CCN(Cc3ccccc3)C3(CCC3)C1)C2 (single isomer, unassigned) [Compound 443]
10000 to 100000 nM | 1 to 100 nM | IV (IV: >100-1000) | O=C(NO)c1cc(F)c2c(c1)CCN([C@@H]1CCN(Cc3ccccc3)C3(CCC3)C1)C2 (single isomer, unassigned) [Compound 444]
10000 to 100000 nM | 1 to 100 nM | IV (IV: >100-1000) | O=C(NO)c1cc(F)c2c(c1)CCN([C@H]1CCOC3(CCC3)C1)C2 (single isomer, unassigned) [Compound 445]
10000 to 100000 nM | 1 to 100 nM | V (V: >1000) | O=C(NO)c1cc(F)c2c(c1)CCN(C1CCOC3(CCC3)C1)C2 (single isomer, unassigned) [Compound 446]
10000 to 100000 nM | 1000 to 10000 nM | III (III: >10-100) | O=C(NO)c1cc(F)c2c(c1)CCN([C@@H]1CCOC3(C1)CN(C1CC1)C3)C2 (single isomer, unassigned) [Compound 449]
1000 to 10000 nM | 1 to 100 nM | IV (IV: >100-1000) | CN1CC2(C[C@@H](N3CCc4cc(C(=O)NO)cc(F)c4C3)CCO2)C1 (single isomer, unassigned) [Compound 451]
10000 to 100000 nM | 100 to 1000 nM | III (III: >10-100) | CN1CC2(C[C@H](N3CCc4cc(C(=O)NO)cc(F)c4C3)CCO2)C1 (single isomer, unassigned) [Compound 452]
10000 to 100000 nM | 1 to 100 nM | IV (IV: >100-1000) | CC(=O)N1CC2(C[C@H](N3CCc4cc(C(=O)NO)cc(F)c4C3)CCO2)C1 (single isomer, unassigned) [Compound 453]
10000 to 100000 nM | 1 to 100 nM | IV (IV: >100-1000) | CC(=O)N1CC2(C[C@@H](N3CCc4cc(C(=O)NO)cc(F)c4C3)CCO2)C1 (single isomer, unassigned) [Compound 454]
1000 to 10000 nM | 100 to 1000 nM | III (III: >10-100) | CC[C@@H]1Cc2c(F)cc(C(=O)NO)cc2CN1CC12CC3CC(CC(C3)C1)C2 (single isomer, unassigned) [Compound 507]
1000 to 10000 nM | 1 to 100 nM | III (III: >10-100) | CC[C@H]1Cc2c(F)cc(C(=O)NO)cc2CN1CC12CC3CC(CC(C3)C1)C2 (single isomer, unassigned) [Compound 508]
1000 to 10000 nM | 1 to 100 nM | III (III: >10-100) | CC[C@@H]1Cc2c(F)cc(C(=O)NO)cc2CN1CC12CC3CC(CC(C3)O1)C2 (single isomer, unassigned) [Compound 509]
1000 to 10000 nM | 1 to 100 nM | IV (IV: >100-1000) | CC[C@H]1Cc2c(F)cc(C(=O)NO)cc2CN1CC12CC3CC(CC(C3)O1)C2 (single isomer, unassigned) [Compound 510]
1000 to 10000 nM | 1 to 100 nM | III (III: >10-100) | CC[C@@H]1Cc2c(F)cc(C(=O)NO)cc2CN1CC1CCCCC1 (single isomer, unassigned) [Compound 517]
1000 to 10000 nM | 1 to 100 nM | IV (IV: >100-1000) | CC[C@H]1Cc2c(F)cc(C(=O)NO)cc2CN1CC1CCCCC1 (single isomer, unassigned) [Compound 518]
100 to 1000 nM | 1 to 100 nM | III (III: >10-100) | CC[C@@H]1Cc2c(F)cc(C(=O)NO)cc2CN1CC1CC2(CCCCC2)C1 (single isomer, unassigned) [Compound 521]
100 to 1000 nM | 1 to 100 nM | III (III: >10-100) | CC[C@H]1Cc2c(F)cc(C(=O)NO)cc2CN1CC1CC2(CCCCC2)C1 (single isomer, unassigned) [Compound 522]
10000 to 100000 nM | 1 to 100 nM | IV (IV: >100-1000) | CC[C@H]1Cc2c(F)cc(C(=O)NO)cc2CN1CC12CC(NC)(C1)C2 (single isomer, unassigned) [Compound 523]
1000 to 10000 nM | 1 to 100 nM | III (III: >10-100) | CC[C@@H]1Cc2c(F)cc(C(=O)NO)cc2CN1CC12CC(NC)(C1)C2 (single isomer, unassigned) [Compound 524]
1000 to 10000 nM | 1 to 100 nM | III (III: >10-100) | CC[C@H]1Cc2c(F)cc(C(=O)NO)cc2CN1CC12CC(NC(C)=O)(C1)C2 (single isomer, unassigned) [Compound 525]
1000 to 10000 nM | 1 to 100 nM | III (III: >10-100) | CC[C@@H]1Cc2c(F)cc(C(=O)NO)cc2CN1CC1CCC2(CCC2)CC1 (single isomer, unassigned) [Compound 527]
1000 to 10000 nM | 1 to 100 nM | III (III: >10-100) | CC[C@H]1Cc2c(F)cc(C(=O)NO)cc2CN1CC1CCC2(CCC2)CC1 (single isomer, unassigned) [Compound 528]
10000 to 100000 nM | 1 to 100 nM | IV (IV: >100-1000) | CC[C@H]1Cc2c(F)cc(C(=O)NO)cc2CN1CC1C2CNCC1C2 (single isomer, unassigned) [Compound 529]
10000 to 100000 nM | 100 to 1000 nM | III (III: >10-100) | CC[C@@H]1Cc2c(F)cc(C(=O)NO)cc2CN1CC1C2CC1CN(C)C2 (single isomer, unassigned) [Compound 530]
> 100000 nM | 1 to 100 nM | V (V: >1000) | CC[C@H]1Cc2c(F)cc(C(=O)NO)cc2CN1CC1C2CC1CN(C)C2 (single isomer, unassigned) [Compound 531]
10000 to 100000 nM | 100 to 1000 nM | IV (IV: >100-1000) | CC[C@@H]1Cc2c(F)cc(C(=O)NO)cc2CN1CC12CC(C1)N(C)C2 (single isomer, unassigned) [Compound 534]
1000 to 10000 nM | 1 to 100 nM | IV (IV: >100-1000) | CC[C@H]1Cc2c(F)cc(C(=O)NO)cc2CN1CC12CC(C1)N(C)C2 (single isomer, unassigned) [Compound 535]
10000 to 100000 nM | 1 to 100 nM | IV (IV: >100-1000) | CC[C@H]1Cc2c(F)cc(C(=O)NO)cc2CN1C[C@]12CN[C@H](CO1)C2 (single isomer, unassigned) [Compound 549]
10000 to 100000 nM | 1 to 100 nM | IV (IV: >100-1000) | CC[C@H]1Cc2c(F)cc(C(=O)NO)cc2CN1C[C@]12C[C@H](CO1)N(C)C2 (single isomer, unassigned) [Compound 552]

SMILES | IC50 (Full length Human HDAC8) | IC50 (Full length Human HDAC6) | Selectivity (6 v 8) (Full length Human HDAC6)
CN1[C@@H]2CC[C@H]1CC(CN1CCc3cc(C(=O)NO)cc(F)c3C1)C2 (single isomer, unassigned) [Compound 482] | 1000 to 10000 nM | 1 to 100 nM | IV (IV: >100-1000)
CN1[C@@H]2CC[C@H]1CC(CN1CCc3cc(C(=O)NO)cc(F)c3C1)C2 (single isomer, unassigned) [Compound 483] | 1000 to 10000 nM | 1 to 100 nM | IV (IV: >100-1000)
